Assay [1] concerns primary fibroblasts from Mucopolysaccharidosis type IIIA patient. Put plainly: Lysosomal cross-sectional area, laser confocal microscopy, MPS IIIA fibroblasts. Format: cell-based, human. Particulars: Alexa Fluor 488 labelled, added for 48 h; GM00879. As to the method:
FIG. 8: Test of rhHSP70 in non-sphingolipidosis. rhHSP70 labelled with Alexa Fluor 488 (for visualization of uptake) was added for 48 h to primary fibroblasts from Mucopolysaccharidosis type IIIA (aka Sanfilippo type IIIA) patient (Coriell Cell Repository ID: GM00879). Read-out: lysosomal cross-sectional area (Primary cellular pathology), performed by laser confocal microscopy.

The test system of a further assay is MCF-7-LC3-EGFP cells. Put plainly: Autophagy induction (LC3-EGFP translocation). Type of assay: cell-based, human. Particulars: 20 μg/mL added to culture medium. From the text: FIG. 11: rhHSP70 induces autophagy in MCF-7-LC3-EGFP cells.
The subject of assay [2] is NPC−/− mice. Put plainly: NPC1 in vivo pilot study: organ weights. Particulars: 10 mg/kg IP three times per week; sacrificed at 7 or 9 weeks old. On the procedure: (§1) Eight treated (rHSP70) NPC^−/− versus eight control (PBS only) NPC^−/− controls. Mice were treated IP three times per week with either 10 mg/kg of rHSP70 or vehicle alone (PBS) from 3 weeks of age. Three control and three treated mice were sacrificed at 7 or 9 weeks old (i.e. after 4 or 6 weeks of treatment, respectively). Organs were perfused (PBS), weighed and frozen for biochemical and immunohistochemical analysis.

For assay [3], the system named is NPC−/− mice. Put plainly: NPC1 in vivo pilot study: growth curves. The settings on record: 10 mg/kg IP three times per week from 3 weeks of age vs PBS. As to the method: FIG. 12: Control NPC−/− mice (A) have shallower and more sporadic growth patterns than HSP70 treated mice (B). Points where growth curves stop abruptly, indicates mice killed for organs. In panel A: Series 1 and 3 are female; Series 2 and 5-8 are male. In panel B: Series 2 and 4-7 are female; Series 1, 3, and 8 are male.
as §1

The subject of assay [4] is NPC−/− mice. Nature of the assay: NPC1 in vivo pilot study: brain sphingosine (HPLC). On the procedure:
as §1
(§2) Organs were homogenised without any added buffer and frozen as 10 ul aliquots. Fresh aliquots were reconstituted to 100 ul with PBS prior to biochemical analysis. Protein determination for each aliquot was performed by BCA protein assay. Cholesterol assays were performed using the Amplex Red Cholesterol Assay from Invitrogen^i. Sphingosine was isolated by sphingoid base extraction and analysed by HPLC^i. GSLs were extracted and analysed by fluorescent HPLC^i. All results were standardised for protein content.

Assay [5] has as its system NPC−/− mice. Nature of the assay: NPC1 in vivo pilot study: tissue GSLs (fluorescent HPLC). As to the method:
as §1, §2

The nature of assay [6]: Surface plasmon resonance (BIAcore) BMP interaction. Format: binding. The settings on record: acidic pH. From the text:
Thus, we investigated the interaction of Hsp70 with palmitoyl-oleoyl-phosphatidylcholine (POPC) large unilamellar vesicles (LUVs) containing various membrane-associated anionic lipids, i.e. palmitoyl-oleoyl-phosphatidylserine (POPS; primarily in plasma membrane), cardiolipin (primarily mitochondrial) and BMP (primarily in late endosomes/lysosomes). Taking into account the increasingly acidic milieu of the endo-lysosomal compartment upon maturation to lysosomes, we compared the protein-lipid interactions in neutral (pH 7.4) and acidic (pH 6.0) conditions. […] As reported earlier for POPS, all negatively charged lipids enhanced the binding of rHsp70 to the liposomes at neutral pH approximately 4-fold irrespective of the charge density on the liposome surface (ranging from −1 to −2).
In order to investigate which part of the Hsp70 protein is responsible for the BMP binding, we measured the fluorescence shift of the tryptophans upon docking of rHsp70 and its mutants into BMP-containing liposomes. […] Next, we substituted the two tryptophans in Hsp70 with phenylalanines (W90F and W580F) and studied which tryptophan is responsible for the fluorescence shift induced by lipid binding. […] A more quantitative BIAcore analysis of the BMP—rHsp70 interaction confirmed that Hsp70 interacted with BMP mainly through its ATPase domain. […]

For assay [7], the system named is primary fibroblasts from Sandhoff Disease patients. Nature of the assay: Volume of Acidic Compartment (VAC) by FACS, Sandhoff fibroblasts. Format: cell-based, human. Particulars: added for 48 h, Sandhoff GM11098. On the procedure: FIG. 10: Test of rhHSP70 in non-sphingolipidosis. rhHSP70 was added for 48 h to primary fibroblasts from Sandhoff Disease and Mucopolysaccharidosis type IIIA (aka Sanfilippo type IIIA) patients (Coriell Cell Repository ID: Sandhoff: GM11098, MPSIIIA: GM00879). Ctrl=Normal Control fibroblasts. Read-out: Volume of Acidic Compartment (VAC) (Primary cellular pathology), performed by FACS.
(In general: In flow cytometry, cells or beads pass a laser one at a time.)

“rHsp70: recombinant (human) heat shock protein 70; in some tests labelled with Alexa Fluor 488”: the “lysosomal cross-sectional area (primary cellular pathology)” value in assay [1] is listed as “effectively reverts the lysosomal primary pathology”. Moreover, the “translocation and accumulation of LC3-EGFP (marker for macroautophagy)” value with MCF-7-LC3-EGFP cells was “leads to translocation and accumulation of LC3-EGFP”. For the same substance, the organ weights entry with NPC−/− mice [2] is given as “No differences”. Also, in the assay with NPC−/− mice [3], the “growth curves (body weight)” value is “rise more steadily and reach higher weights”. Moreover, the sphingosine in brain result in the assay on NPC−/− mice [4] (7 week) is “no significant difference”; with NPC−/− mice [4] (9 week), “slight, yet significant (p<0.005, **) increased levels of sphingosine”. For the same substance, the “GSLs in spleen and brain” value with NPC−/− mice [5] (7 weeks) is “reductions in spleen and brain, but are not statistically significant”. For the same substance, the GSLs in liver result in the assay with NPC−/− mice [5] (7 weeks, p<0.05) is “significant reduction”. For the same substance, the GSLs in tissues entry in the assay with NPC−/− mice [5] (9 weeks) is on record as “no significant differences”. Besides, the “fall of total GSL levels in the brain” value in the assay with NPC−/− mice [5] (at 9 weeks, compared with five-fold reduction in control mice) is “less severe”. For the same substance, the “interaction with BMP (BIAcore)” value in assay [6] is “high affinity binding”. For the same substance, the “Volume of Acidic Compartment (VAC)” value in assay [7] is “effectively reverts the lysosomal primary pathology”.

The record behind these values is patent publication US10532085B2, “Methods for increasing intracellular activity of Hsp70” (Orphazyme A/S, priority 2010, dated 2020).
